# In paper PMC6789111, “Crossing the blood-brain-barrier with nanoligand drug carriers self-assembled from a phage display peptide” (Nature Communications, 2019):
# Peptide text beside a SMILES is read from it. * marks the point of attachment. 5FAM = O=C1OC2(c3ccc(O)cc3Oc3cc(O)ccc32)c2ccc(C(=O)*)cc21
# What was measured:
# [1] = Blood count after intravenous injection; assay type: in vivo, ICR mice; conditions: mouse, in vivo, iv
# Description: Supplementary Table 2. Blood count following intravenous injection of FAM-CGY NLCs in free form and complexed with siRNA
# Samples WBC RBC HGB HCT MCV MCH MCHC PLT
# WBC: white blood cell; RBC: red blood cell count; HGB: haemoglobin; HCT: haematocrit; MCV: mean corpuscular volume; MCH: mean corpuscular haemoglobin; MCHC: mean corpuscular
# significance (*p < 0.05). The results are mean ± s.d. (n = 3 animals per group). The experiment was repeated twice with identical results. The siRNA represent BACE-1-specific siRNA. The
# final concentration of the peptide conjugate was 10 µM and that of siRNA was 48 nM, based on blood volume calculation equivalent to 6% of the body weight. LPS = lipopolysaccharide.
# [2] = test system: hCMEC/D3 cell monolayer; assay: Transwell in vitro BBB model; assay type: cell-based, human
# Protocol: For the construction of the in vitro BBB model, hCMEC/D3 cells were seeded on rat tail collagen-coated polycarbonate membranes (Transwell, No. 3401 Costar; Corning, Wiesbaden, Germany; 0.4 μm pore size; 1.13 cm^2 growth area) with a density of 100,000 cells cm^−2. Every three days the cell medium was change. In general after 7 days growth, the cells reached confluence. The transendothelial electrical resistance (TEER) and cell layer capacitance (CCL), which reflects the membrane surface area of the hCMEC/D3 cell monolayer, were measured using CellZscope system (NanoAnalytics, Münster, Germany). Cells with CCL values in the range of 0.5–5.0 μF cm^−2 indicate cell confluence and validate TEER values were selected for the transfer experiments. NLCs at different concentrations were introduced in to the apical side of the BBB model. The TEER values were measured during the incubation. After 24 h of incubation, the media from basal and apical sides were sampled and analysed for fluorescent measurement. CD31 and paracellular adherens (β-catenin) junctions were assessed by immunofluorescence labeling directly on the cell monolayer attached to the transwell membrane. Briefly, cells were fixed by 4% v/v paraformaldehyde for 10 min, rinsed and then permeabilised with 0.5% (v/v) Triton X-100 for 10 min. After rinsing samples were blocked by 5% w/v BSA for 1 h, followed by incubation with primary antibodies (rabbit polyclonal to CD31, rabbit polyclonal to anti-β-catenin) in 1% w/v BSA overnight at 4 °C. […] After rinsing, the red fluorescence from tight junction proteins was observed by a Leica AF6000LX microscope equipped with a 63 × objective using ×1.6 magnifications. […]
# formation of multiple cell-layers was sometime observed from day 7 onward. […] TEER values and its corresponding capacitance were recorded after the introduction of peptide for 24 h. (d) & (e) Staining and quantification of endothelial cells (CD31) and adheren β-catenin markers confirming the presence of a functional tight junction before and after NLC ( 5 µM) challenge. […]
# [3] = mouse, in vivo, iv
# Protocol: After 4, 24 and 72 h post injection, mice were sacrificed and perfused with 10 mL 0.9% (w/v) saline at a rate of 2 mL min^−1. Organs (brain, heart, liver, lung, kidney, spleen) were collected for haematoxylin-eosin (H&E) analysis. Tissues were sectioned at a 5 mm thickness. H&E staining was done by submersion in Harris hematoxylin followed by differentiation through 37% HCl and Li2CO3 solution. An Olympus optical microscope (Tokyo, Japan) was used for assessing slides.
# [4] = test system: GFAP; assay: ELISA of GFAP in hippocampus; assay type: in vivo, ICR mice; conditions: Ave.
# [5] = test system: Iba-1; assay: ELISA of Iba-1 in hippocampus; assay type: in vivo, ICR mice; conditions: Ave.
# [6] = test system: hCMEC/D3 cells
# Protocol: LDH release was followed at 24 h post transfection procedures. The measurement was performed using CytoTox96® Non-Radioactive Cytotoxicity Assay kit (Promega, WI, USA)[43]. The maximum amount of LDH in the cells, induced by the addition of a lysis solution, was measured and used as a 100% LDH release and compared with peptidoplex and siPORT-siRNA complex-induced LDH release as well as to spontaneous cellular LDH release (untreated cells).
# [7] = test system: hCMEC/D3 cells; assay: Cell uptake by flow cytometry; assay type: cell-based, human; conditions: 5 µM, foetal bovine serum, 16 h, 37 °C (Supplementary Fig. 12)
# Protocol: Peptide internalisation was measured by flow cytometry (FACS ArrayTM Cell Analysis, Becton, Dickinson and Company, NJ, USA). Cells (1 × 10^5 cm^−2) were seeded on 24-well plates and grown 1 day at 37 °C and 5% CO2 in order to reach 60–70% confluence. The cells were washed 3 times with pre-heated PBS. The uptake studies were initiated by adding 500 µL of 5 µM fluorescence-labelled peptides (diluted in cell medium containing with different serum concentration). Serum concentration in incubation varied from 5 to 20% (v/v). […] A total of 10,000 cells were analysed by flow cytometry.
# [8] = test system: IL-1β; assay: ELISA of IL-1β in hippocampus; assay type: in vivo, ICR mice; conditions: Ave.
# [9] = test system: hCMEC/D3 cells; assay: Competition studies of NLC uptake; assay type: cell-based, human
# Protocol: The amyloid β1–42 oligomers were prepared using a previous method. BSA was used as control protein competitor. The fluorescence microscopy and FACS were employed to observe and quantify FAM-CGY self-assembly uptake, respectively.
# [10] = test system: IL-6; assay: ELISA of IL-6 in hippocampus; assay type: in vivo, ICR mice; conditions: Ave.
# Protocol: After 4, 24 and 72 h post injection, mice were sacrificed and perfused with 10 mL 0.9% (w/v) saline at a rate of 2 mL min^−1.
# Hippocampus was dissected out, rinsed in ice-cold PBS thoroughly, weighted and immediately frozen in liquid nitrogen. Tissues were cut into small pieces and homogenized in 1 mL ice-cold PBS with a glass homogeniser and sonicated with an ultrasonic cell disrupter to break the cell membranes. Homogenates were centrifuges for 5 min at 5,000 × g and supernatants were assayed immediately for quantitative determination of TNF-α, IL-6, IL-1β, Iba-1 and GFAP by corresponding ELISA kits, respectively in accordance with manufacturer’s instructions.
compound,measurement,setting,value
CC[C@H](C)[C@H](NC(=O)[C@H](CC(N)=O)NC(=O)[C@H](Cc1c[nH]cn1)NC(=O)[C@@H](NC(=O)[C@@H]1CCCN1C(=O)[C@H](CCCNC(=N)N)NC(=O)[C@H](Cc1ccc(O)cc1)NC(=O)CNC(=O)[C@H](CS)NC(=O)c1ccc2c(c1)C(=O)OC21c2ccc(O)cc2Oc2cc(O)ccc21)C(C)C)C(=O)N[C@@H](CCCNC(=N)N)C(=O)NCC(=O)N[C@@H](Cc1c[nH]cn1)C(=O)N[C@@H](Cc1c[nH]c2ccccc12)C(=O)N[C@@H](C)C(=O)N1CCC[C@H]1C(=O)NCC(=O)O [FAM-CGY] (5FAM-CGYRPVHNIRGHWAPG-OH),WBC,[1],4.32±0.53 (×109)L-1
same,effect on blood count,[1],no effect on blood count
same,transport across the hCMEC/D3 monolayer,[2],transport of a fraction across the monolayer
same,"histology of liver, kidneys, heart, lungs, spleen",[3],no adverse morphological changes and inflammatory reactions
same,GFAP in hippocampus (Figure 6i),[4]; 4 h after i.v.,219.00
same,GFAP in hippocampus (Figure 6i),[4]; 24 h after i.v. (LPS 24 h),209.59
same,GFAP in hippocampus (Figure 6i),[4]; 72 h after i.v.,220.69
same,Iba-1 in hippocampus (Figure 6h),[5]; 4 h after i.v.,0.93
same,Iba-1 in hippocampus (Figure 6h),[5]; 24 h after i.v. (LPS 24 h),1.02
same,Iba-1 in hippocampus (Figure 6h),[5]; 72 h after i.v.,0.96
same,plasma membrane integrity (extracellular LDH),[6],neither FAM-CGY NLCs nor FAM-CGY/siRNA nanoparticles perturbed plasma membrane integrity
same,effect of serum proteins on association with endothelial cells,[7],not affected by the presence of serum proteins
same,IL-1β in hippocampus (Figure 6g),[8]; 4 h after i.v.,21.06
same,IL-1β in hippocampus (Figure 6g),[8]; 24 h after i.v. (LPS 24 h),23.58
same,IL-1β in hippocampus (Figure 6g),[8]; 72 h after i.v.,22.65
same,inhibition of NLC uptake by transferrin,"[9]; 500 nM partially iron saturated human transferrin, 37 °C",~ 50%
same,FAM-CGY uptake (% of control),"[9]; 5 µM NLC + 62.5 nM Tf, Ave. All",78.89 % of control
same,FAM-CGY uptake (% of control),"[9]; 5 µM NLC + 62.5 nM Tf, Set 2",73.26 % of control
same,FAM-CGY uptake (% of control),"[9]; 5 µM NLC + 62.5 nM Tf, Set 3",81.15 % of control
same,FAM-CGY uptake (% of control),"[9]; 5 µM NLC + 62.5 nM transferrin (Tf), 16 h, FACS, Set 1",82.27 % of control
same,FAM-CGY uptake (% of control),"[9]; 5 µM NLC + 250 nM Tf+20 μg RAGE P, Ave. All",33.57 % of control
same,FAM-CGY uptake (% of control),"[9]; 5 µM NLC + 250 nM Tf, Ave. All",53.82 % of control
same,FAM-CGY uptake (% of control),"[9]; 5 µM NLC + 500 nM Tf, Ave. All",48.73 % of control
same,FAM-CGY uptake (% of control),"[9]; 5 µM NLC + 5 μg RAGE P, Ave. All",90.44 % of control
same,FAM-CGY uptake (% of control),"[9]; 5 µM NLC + 5 μg RAGE P, Set 2",86.26 % of control
same,FAM-CGY uptake (% of control),"[9]; 5 µM NLC + 5 μg RAGE P, Set 3",92.62 % of control
same,FAM-CGY uptake (% of control),"[9]; 5 µM NLC + 5 μg RAGE peptide (RAGE P), Set 1",92.46 % of control
same,FAM-CGY uptake (% of control),"[9]; 5 µM NLC + 10 μg RAGE P, Ave. All",82.03 % of control
same,FAM-CGY uptake (% of control),"[9]; 5 µM NLC + 20 μg RAGE P, Ave. All",58.83 % of control
same,FAM-CGY uptake (% of control),"[9]; 5 µM NLC + 40 μg BSA (irrelevant protein), Set 1",108.69 % of control
same,FAM-CGY uptake (% of control),"[9]; 5 µM NLC + 40 μg BSA, Ave. All",103.56 % of control
same,FAM-CGY uptake (% of control),"[9]; 5 µM NLC + 40 μg BSA, Set 2",96.26 % of control
same,FAM-CGY uptake (% of control),"[9]; 5 µM NLC + 40 μg BSA, Set 3",105.73 % of control
same,block of NLC uptake by transferrin plus RAGE peptide ligand,[9]; simultaneous presence of both,~ 70%
same,IL-6 in hippocampus (Figure 6f),[10]; 4 h after i.v.,6.03
same,IL-6 in hippocampus (Figure 6f),[10]; 72 h after i.v.,6.23
